Laboratory results published in patent US20140051714A1, “Modulators Of The GPR119 Receptor And The Treatment Of Disorders Related Thereto” (ARENA PHARMACEUTICALS, INC., priority 2011, published 2014).

Columns and labels:
[1] = tested on: Male 129SVE mice; assay: Oral glucose tolerance test (oGTT) in male 129SVE mice; format: in vivo; conditions: for Plasma Glucose, Mean: n=6
Protocol: Male 129SVE mice (approximately 8 weeks old) were fasted for 18 h and randomly grouped (n=6) to receive a GPR119 agonist (Compound 1) at 3, 10, or 30 mg/kg body weight. The compound was delivered orally via a gavage needle (4 mL/kg) 30 min prior to glucose bolus (3 g/kg) (time=−30 min in FIG. 1), with a separate control group receiving vehicle (20% hydroxypropyl-beta-cyclodextrin (HPCD). At time 0 min, the glucose bolus was administered. Levels of blood glucose were assessed using a glucometer (One-Touch Ultra™, LifeScan) at time −30 min (prior to compound administration), at 0 min (at time when glucose bolus was given), and at 20, 40, 60, 120 min post glucose bolus. The plasma glucose level (Table A) and glucose excursion curve (FIG. 1) are shown. Glucose excursion reduction (area under the curve (AUC)) in compound treated animals relative to vehicle control is given in FIG. 2.

[2] = tested on: Male 129SVE mice; assay: GIP release in male 129SVE mice (plasma total GIP, ELISA); format: in vivo; conditions: 3 or 30 mg/kg p.o.; blood sample after 45 min
Protocol: Male 129SVE mice (approximately 8 weeks old) were fasted for 18 h and randomly grouped (n=6) to receive a GPR119 agonist (Compound 1) at 3 or 30 mg/kg body weight. Compound 1 was delivered orally via a gavage needle (4 mL/kg), and after 45 min a blood sample was collected to determine plasma total GIP levels. A separate control group received vehicle (PET (80% PEG: 10% Ethanol: 10% Tween80™)). Plasma GIP levels were determined using a GIP (total) ELISA kit from Millipore.

[3] = tested on: Male SD rats; assay: Gastric emptying in male SD rats (stomach content 6 h post-dosing); format: in vivo; conditions: 3, 10, or 30 mg/kg orally
Protocol: Male SD rats were fasted for 18 h and randomly grouped (n=5). Fasted rats were allowed to access food for 30 min, and the amount of food consumed was recorded for each rat. At the end of the 30 min food intake, rats were put in cages without food and water, and dosed with Compound 1 at 3, 10, or 30 mg/kg, or vehicle control (20% HPCD) orally, or with exendin-4 (Ex-4) at 100 μg/kg i.p. Six hours post-dosing, rats were euthanized with CO2, and stomach content was determined.

[4] = tested on: Male ZDF rats; assay: Oral glucose tolerance test (oGTT) in male ZDF rats; format: in vivo; conditions: for % Inhibition of Glucose Excursion: 60 min prior to glucose bolus (3 g/kg), AUC relative to vehicle control
Protocol: Male ZDF rats were fasted for 18 h and randomly grouped (n=6) to receive the GPR119 agonist Compound 1 at 3, 10, or 30 mg/kg, the control compound Januvia (3 mg/kg), or a combination of Compound 1 (3 mg/kg) and Januvia (3 mg/kg). The compounds were delivered orally via a gavage needle (p.o., volume 4 mL/kg) 60 min prior to glucose bolus (3 g/kg) (time=−60 min in FIG. 4), with a separate group receiving vehicle (20% hydroxypropyl-beta-cyclodextrin (HPCD)) as control. At time 0 min. a glucose bolus was administered. Levels of blood glucose were assessed using a glucometer (One-Touch Ultra™, LifeScan) at time −60 min (prior to compound administration), at 0 min (at time when glucose bolus was given), and at 30, 60, 90, and 120 min post glucose bolus. The plasma glucose excursion curve (FIG. 4) is shown.

[5] = target: T1, GPR119 receptor (Homo sapiens, UniProt Q8TDV5); assay: HTRF cAMP detection assay in CHO-K1 cells stably expressing the GPR119 receptor; format: cell-based
T1 construct: expressed in transfected cells
T1 sequence (Q8TDV5 2-335): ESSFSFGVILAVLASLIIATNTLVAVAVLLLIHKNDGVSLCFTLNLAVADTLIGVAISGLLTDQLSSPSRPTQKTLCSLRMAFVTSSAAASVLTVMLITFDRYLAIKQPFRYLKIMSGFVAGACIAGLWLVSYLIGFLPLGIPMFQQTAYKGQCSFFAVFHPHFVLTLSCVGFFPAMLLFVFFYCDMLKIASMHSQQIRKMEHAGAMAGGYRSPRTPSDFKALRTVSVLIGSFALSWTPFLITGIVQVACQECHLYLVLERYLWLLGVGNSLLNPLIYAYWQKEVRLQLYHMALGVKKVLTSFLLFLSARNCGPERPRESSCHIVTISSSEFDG
Protocol: GPR119 agonist, Compound 1, was evaluated in an HTRF® cAMP detection assay (Cisbio, cAMP Dynamic 2 Assay Kit; #62AM4PEJ) according to the manufacturer's instructions using CHO-K1 cells stably expressing the GPR119 receptor. CHO-K1 cells were transduced with a lentiviral vector encoding the nucleotide sequence of GPR119 (NCBI mRNA and protein reference sequences: NM_178471.2 & NP_848566). The N-terminus of the GPR119 nucleotide sequence was modified to replace the first, methionine-coding, codon with a nucleotide sequence coding for a standard, nine amino acid, hemagglutinin tag. Following transduction, cells expressing the GPR119 receptor were isolated and a single clone was isolated following standard dilution-cloning procedures. On the day of the assay, cultured CHO-GPR119 cells were harvested, suspended in assay buffer and plated into 384-well assay plates (PerkinElmer® Proxiplate® #6008280) at a density of 2,000 cells per well. A cAMP standard curve was added to each plate. Compound 1 was dissolved in DMSO, serially diluted in DMSO and then diluted in assay buffer before addition to the cells. Compound 1 was evaluated in triplicate, using 10-point, 5-fold serial dilutions starting at 10 μM. […] Plates were then incubated at room temperature for 1 h prior to reading. Time-resolved fluorescence measurements were collected on PerkinElmer Envision™ or BMG Pherastar™ microplate readers. […]

For `CCc1cnc(N2CCC(Oc3ncnc(Oc4ccc(S(C)(=O)=O)nc4C)c3F)CC2)nc1` [Compound 1, 4-(1-(5-ethylpyrimidin-2-yl)piperidin-4-yloxy)-5-fluoro-6-(2-methyl-6-(methylsulfonyl)pyridin-3-yloxy)pyrimidine], which “Plasma Glucose, Mean” value ([1]; 3 mg/kg p.o., 20 min post glucose bolus) is on record?
Its value is 282.8333 mg/dL.

What about the “Plasma Glucose, Mean” value ([1]; 3 mg/kg p.o., 40 min post glucose bolus) of the same compound?
The value was 301.6667 mg/dL.

And the “Plasma Glucose, Mean” value ([1]; 3 mg/kg p.o., 60 min post glucose bolus)?
Its value is 270.6667 mg/dL.

What about the “Plasma Glucose, Mean” value ([1]; 3 mg/kg p.o., 120 min post glucose bolus) of the same compound?
The value was 151.3333 mg/dL.

And the “Plasma Glucose, Mean” value ([1]; 3 mg/kg p.o., time 0 min relative to glucose bolus (3 g/kg))?
Its value is 83.83 mg/dL.

And the “Plasma Glucose, Mean” value ([1]; 3 mg/kg p.o., time −30 min relative to glucose bolus (prior to compound administration))?
Its value is 75 mg/dL.

What about the “Plasma Glucose, Mean” value ([1]; 10 mg/kg p.o., 20 min post glucose bolus) of the same compound?
Its value is 254.3333 mg/dL.

What about the “Plasma Glucose, Mean” value ([1]; 10 mg/kg p.o., 40 min post glucose bolus) of the same compound?
Its value is 276.8333 mg/dL.

What about the “Plasma Glucose, Mean” value ([1]; 10 mg/kg p.o., 60 min post glucose bolus) of the same compound?
The value was 197.8333 mg/dL.

And the “Plasma Glucose, Mean” value ([1]; 10 mg/kg p.o., 120 min post glucose bolus)?
The value was 134 mg/dL.

What about the “Plasma Glucose, Mean” value ([1]; 10 mg/kg p.o., time 0 min relative to glucose bolus (3 g/kg)) of the same compound?
The value was 95.67 mg/dL.

What about the “Plasma Glucose, Mean” value ([1]; 10 mg/kg p.o., time −30 min relative to glucose bolus (prior to compound administration)) of the same compound?
Its value is 75.67 mg/dL.

And the “Effect on blood glucose after challenge with glucose” value ([1]; 3, 10, or 30 mg/kg p.o., 30 min prior to glucose bolus (3 g/kg))?
Its value is “lowered blood glucose”.

What about the “Effect on plasma glucose levels in oGTT” value ([1]; dose of 10 mg/kg) of the same compound?
Its value is “significantly reduced plasma glucose levels”.

What about the “Effect on GIP release (plasma total GIP)” value [2] of the same compound?
Its value is “stimulates the release of GIP”.

And the “Effect on gastric emptying” value [3]?
The value was “no significant effect on gastric emptying”.

What about the “% Inhibition of Glucose Excursion” value ([4]; 3 mg/kg p.o.) of the same compound?
The value was 19.1%.

And the “% Inhibition of Glucose Excursion” value ([4]; 10 mg/kg p.o.)?
The value was 30.2%.

And the “% Inhibition of Glucose Excursion” value ([4]; 30 mg/kg p.o.)?
The value was 60.7%.

What about the “Effect on blood glucose after a challenge with glucose” value ([4]; diabetic ZDF rats, 3, 10, or 30 mg/kg p.o.) of the same compound?
Its value is “lowered blood glucose”.

What about the “Agonist character at GPR119 (HTRF assay)” value [5] of the same compound?
The value was “full agonist”.

With `N[C@@H](CC(=O)N1CCn2c(nnc2C(F)(F)F)C1)Cc1cc(F)c(F)cc1F` [Januvia, 3(R)-amino-1-[3-(trifluoromethyl)-5,6,7,8-tetrahydro[1,2,4]triazolo[4,3-a]pyrazin-7-yl]-4-(2,4,5-trifluorophenyl)butan-1-one phosphate, reference compound] as the compound, how does the “% Inhibition of Glucose Excursion” value ([4]; 3 mg/kg p.o.) read?
Its value is 54.2%.
